These results are taken from patent US6956030B2, “Use of mometasone furoate for treating upper airway diseases” (Schering Corporation, priority 1994, dated 2005).

Marks after values point to notes of the source that are not given here.

A short description of data set [1]: Drug metabolism/clinical pharmacology study: absorption and excretion of total radioactivity after ^3H-MF by various routes. It counts as in vivo, normal healthy male volunteers. The following applies: for AUC (1) of total radioactivity, dose normalized / Cmax of total radioactivity, dose normalized: based on dose normalized data; for percent of dose as tritiated water in the body: estimated from urinary distillation experiments. On the procedure: In addition, a single-dose absorption, excretion and metabolism study using 200 mcg of ^3H-mometasone furoate as the nasal spray formulation was conducted in 6 normal male volunteers. When systemic absorption (based on urinary excretion) was compared to an intravenously administered dose of ^3H-mometasone furoate, it was 8%.
A drug metabolism and clinical pharmacology study was conducted by administering (by various routes) tritium-labeled mometasone furoate (“^3H-MF”) to 6 groups of 6 normal male volunteers in each group. Blood and urine samples were collected for measurement of total drug (including metabolites).
The objectives of these studies in male volunteers were to determine the absorption, metabolism and excretion of ^3H-labeled mometasone furoate (“^3H-MF”) following administration by oral swallow as a solution and as an aqueous suspension of the monohydrate, by oral inhalation as a suspension from a standard metered dose inhaler (MDI) and from a metered dose inhaler containing a spacer device (Gentlehaler), by nasal inhalation as an aqueous suspension of the mometasone furoate monohydrate from a nasal spray unit and by intravenous injection as a solution.
Thirty-six (n=6 per treatment group) normal healthy male volunteers between the ages of 19 and 40 yr. (average 29 yr.) having weights in accordance with current actuarial tables (+10%) were enrolled in these single dose studies. All subjects were determined to be in good health by their medical history, physical examinations, clinical and laboratory tests.
(§1) Plasma, urine, expired air filters, Respirgard and fecal samples were collected and assayed for radioactivity content. The limit of quantitation (LOQ) for plasma radioactivity ranged from 0.103 to 0.138 ng eq/ml., except for the nasal spray treatment where the LOQ was 0.025 ng eq/ml. Selected plasma, urine and fecal samples were analyzed for metabolite profiles.
Pharmacokinetics—The mean (n=6) plasma concentrations of total radioactivity are illustrated in Summary FIG. 1 and the mean (n=6) pharmacokinetic parameters derived from total plasma radioactivity are presented in Table 2.

Data set [2] in a line: HPLC/radio-flow metabolite profiling of plasma, urine and fecal extracts after ^3H-MF. Type of data set: in vivo, normal healthy male volunteers.
Text: The substantial minimization of the systemic effect of mometasone furoate administered intranasally or by oral inhalation has been measured by High Performance Liquid Chromatography (HPLC) metabolite profiling of plasma radioactivity of mometasone furoate, its substantially complete (>98%) first-pass metabolism in the liver and by a minimal reduction in cortisol secretion levels.
as §1
Selected plasma, urine and fecal extracts were analyzed by high performance liquid chromatography (HPLC) with radio-flow monitoring to determine metabolite profiles. […] Approximately 1.5% of the 3 hr. plasma radioactivity was associated with parent drug indicating extensive first past metabolism and rapid inactivation by the liver. In contrast, following intravenous administration, approximately 39% of the 3 hr. plasma radioactivity was associated with parent drug. Approximately 12% and 33% of the 3 hr. plasma radioactivity was associated with parent drug following administration of the MDI and Gentlehaler, respectively. In general, the plasma concentrations of radioactivity following the nasal and oral suspension routes of administration were too low for metabolite profiling.
Hydrolysis of plasma and urine was performed with an enzyme preparation containing both β-glucuronidase and aryl sulfatase. These experiments yielded modest changes in the HPLC metabolite profiles that were consistent with the hydrolytic release of conjugated metabolites.

For data set [3] the following is noted: cited from earlier work; for efficacy in treating asthma in clinical trials: clinical trials / Phase II; for systemic side effects: in vivo.
The subject of the next data set is plasma cortisol. In words: Phase I rising single-dose safety and tolerance study, metered dose inhaler, 24-hour plasma cortisol. It counts as in vivo, healthy male volunteers. The protocol:
Several Phase I studies were conducted using mometasone furoate formulated for delivery as a suspension in a pressurized metered dose inhaler (MDI). In a randomized, third-party blinded, placebo-controlled rising single-dose safety and tolerance study, aerosolized mometasone furoate was administered by a metered dose inhaler to eight healthy male volunteers. Doses were administered at 11 p.m. and plasma cortisol concentrations were measured during the following 24-hour period.

The conditions of data set [4]: of the inhalation dose; cited from earlier work.

On to `C[C@@H]1C[C@H]2[C@@H]3CCC4=CC(=O)C=C[C@]4(C)[C@@]3(Cl)[C@@H](O)C[C@]2(C)[C@@]1(OC(=O)c1ccco1)C(=O)CCl` [^3H-MF], for which the “% Absorbed (AUC): radioactivity absorbed, dose normalized versus intravenous data” value is on record as 69* % in data set [1] (Gentlehaler), 23* % in data set [1] (MDI) and 122% in data set [1] (oral solution). The “% Absorbed (Urine): radioactivity absorbed, urinary excretion compared to the intravenous dose” value in data set [1] (Gentlehaler) was 67%; in data set [1] (MDI), 30%; in data set [1] (nasal spray, listed as 3H-mometasone furoate), 8%; in data set [1] (oral solution), 104%. The “Feces (% dose): administered radioactivity excreted in feces through 168 hr” value in data set [1] (Gentlehaler) turned out to be 89%; in data set [1] (MDI), 86%; in data set [1] (intravenous), 54%; in data set [1] (nasal spray), 78%; in data set [1] (oral solution) it was 62%; in data set [1] (oral suspension), 73%. Moreover, the “U + F (% dose): total dose recovered in urine and feces through 168 hr” value in data set [1] (Gentlehaler) was 105%; in data set [1] (MDI), 94%; in data set [1] (intravenous), 78%; in data set [1] (nasal spray), 80%; in data set [1] (oral solution), 87%; in data set [1] (oral suspension) it was 75%. The “Urine (% dose): administered radioactivity excreted in the urine through 168 hr” value in data set [1] (Gentlehaler) was roughly 16%; in data set [1] (MDI), roughly 7%. Further, the “absorption of drug-derived radioactivity (dose normalized AUC and urinary excretion data)” value in data set [1] (Gentlehaler) is 67-69%; in data set [1] (MDI) it was 23-30%. For the same molecule, the “AUC (1) of total radioactivity to infinity” value in data set [1] (Gentlehaler 0.40 mg) is 110 ng eq hr/ml; in data set [1] (MDI 0.86 mg) it was 81 ng eq hr/ml; in data set [1] (intravenous solution 1.03 mg) it was 401 ng eq hr/ml; in data set [1] (nasal spray 0.19 mg), “BQL”; in data set [1] (oral solution 1.03 mg) it was 488 ng eq hr/ml; in data set [1] (oral suspension 0.99 mg) it was “BQL”. Moreover, the “AUC (1) of total radioactivity, dose normalized” value in data set [1] (Gentlehaler) came out at 275 ng eq hr/ml; in data set [1] (MDI), 94 ng eq hr/ml. For the same molecule, the “Cmax of total radioactivity, dose normalized” value in data set [1] (Gentlehaler) came to 1.71 ng eq/ml; in data set [1] (MDI), 0.93 ng eq/ml. Also, the “tritium label exchanged with body water” value in data set [1] (human, in vivo) was “less than 4%”. Further, the “Cmax (C5min) of total radioactivity” value in data set [1] (intravenous solution 1.03 mg, mean n=6) was found to be 23.7 ng eq/ml. In addition, the “percent of dose as tritiated water in the body” value is recorded as “approximately 3.7%” in data set [1] (intravenous) and roughly 2.9% in data set [1] (oral solution). For the same molecule, the “Cmax of total radioactivity” value in data set [1] (nasal spray 0.19 mg, LOQ 0.025 ng eq/ml) is given as “BQL**”; in data set [1] (nasal spray 0.19 mg, LOQ 0.025 ng eq/ml, listed as 3H-mometasone furoate), “below the limit of quantification”; in data set [1] (oral solution 1.03 mg, mean n=6) it was 4.8 ng eq/ml; in data set [1] (oral suspension 0.99 mg, LOQ 0.103 to 0.138 ng eq/ml) it was “BQL”. The “route of excretion of radioactivity” value in data set [1] (regardless of dosage form and route of administration) was “predominantly excreted in the feces”. Besides, the “3 hr. plasma radioactivity associated with parent drug” value in data set [2] (Gentlehaler) was roughly 33%; in data set [2] (MDI), “Approximately 12%”; in data set [2] (intravenous), “approximately 39%”; in data set [2] (oral solution), “Approximately 1.5%”. For the same molecule, the urine metabolite profile entry in data set [2] (Gentlehaler) was “all of the radioactivity was associated with metabolites more polar than parent drug”. In data set [2] (intravenous and oral solution), the “urinary and fecal extract metabolite profile” value is listed as “all of the radioactivity was associated with metabolites more polar than parent drug”. Further, the “fecal extract metabolite profile” value in data set [2] (nasal spray, oral suspension, MDI and Gentlehaler) is “presence primarily of mometasone furoate”. Further, the plasma metabolite profile entry in data set [2] (oral solution) is on record as “most of the plasma radioactivity was associated with metabolites more polar than the available standards”.
As for `CCS[C@]1(SC)CC[C@H]2[C@@H]3CCC4=CC(=O)C=C[C@]4(C)[C@@]3(F)[C@@H](O)C[C@@]21C` [tipredane], in data set [3], the “efficacy in treating asthma in clinical trials” value is on record as “have not demonstrated a level of efficacy in treating asthma which would be considered therapeutically useful” and the systemic side effects entry is on record as “low systemic side effects”.
`CCCC(=O)O[C@]1(C(=O)CSC(=O)CC)CC[C@H]2[C@@H]3CCC4=CC(=O)CC[C@]4(C)[C@H]3[C@@H](O)C[C@@]21C` [butixocort propionate]: in data set [3], the “efficacy in treating asthma in clinical trials” value is “some efficacy” and the systemic side effects result is recorded as “low systemic side-effects”.
Take `CCC(=O)OCC(=O)[C@@]1(OC(=O)CC)[C@@H](C)C[C@H]2[C@@H]3CCC4=CC(=O)C=C[C@]4(C)[C@@]3(Cl)[C@@H](O)C[C@@]21C` [beclomethasone dipropionate]: the “reduction of 24-hour area under the curve plasma cortisol profile (AUC 0-24) compared to placebo” value came to 30% in the data set on plasma cortisol (single dose 1000 mcg by MDI at 11 p.m.), 38% in the data set with plasma cortisol (single dose 2000 mcg by MDI at 11 p.m.) and 65% with plasma cortisol (single dose 4000 mcg by MDI at 11 p.m.).
With `CCCC1O[C@@H]2C[C@H]3[C@@H]4CCC5=CC(=O)C=C[C@]5(C)[C@H]4[C@@H](O)C[C@]3(C)[C@]2(C(=O)CO)O1` (stereo partly shown) [budesonide], in data set [4], the “systemic bioavailability after oral ingestion” value is reported as “greater than 10%”.
